Measurements published in patent publication US20170253607A1, “LONG-ACTING HIV PROTEASE INHIBITOR” (Shionogi & Co., Ltd., priority 2014, published 2017).

Target: HIV-1 PR (Human immunodeficiency virus type 1 group M subtype B, UniProt P04585)
Assay: HIV-protease inhibitory activity assay (FRET peptide substrate)
Type: biochemical
Details: Test Example 1
Procedure: Test Example 1: HIV-Protease Inhibitory Activity Assay
The HIV-1 PR assay was performed by using a FRET (Fluorescence Resonance Energy Transfer) peptide substrate (AnaSpec, Inc., Fremont, Calif.). Initially in the intact FRET peptide, the fluorescence of HiLyte Fluor 488 is quenched by QXL 520. Upon substrate cleavage by PR, the fluorescence is recovered and can be monitored. Test compounds diluted in DMSO was plated to the wells of 384-well plate. Then, mixed with assay buffer (0.1 mol/L NaAc containing 0.5 mol/L NaCl, 1 mmol/L EDTA, 1 mmol/L DTT, and 0.05% Tween 20, pH 4.8) in the presence or absence of HIV-1 PR (0.83 ng), and let it stand for 5 minutes at room temperature. Background fluorescence intensity was measured and let it stand for another 15 minutes at room temperature. The enzyme reaction was started by adding substrate diluted in assay buffer at final concentration of 2 μmol/L, and let it stand for 60 minutes at room temperature. After 60 minutes, the fluorescence intensity was measured. Fluorescence intensity was measured with excitation and emission wavelengths of 485 nm and 535 nm, respectively.
IC50 values were determined using non-linear regression four-parameter logistic equation, y=A+((B−A)/(1+((C/x)̂D))) where A=minimum inhibition, B=maximum inhibition, C=log IC50, D=slope factor, x=concentration of compound and y=% inhibition.

COc1ccc(S(=O)(=O)N(CC(C)C)CC(O)C(Cc2ccc(NCc3cccc(-c4sc5c(c4C(=O)O)CC(C)(C)CC5)c3F)cc2)NC(=O)OC2COC3(C)OCCC23)cc1 (stereo not drawn) [Compound I-543]
IC50: 2.14 nM

COc1ccc(S(=O)(=O)N(CC(C)C)CC(O)C(Cc2ccc(OC3CCCN(c4ccc(C#N)cc4-c4sc5c(c4C(=O)O)CC(C)(C)CC5)C3)cc2)NC(=O)OC2COC3(C)OCCC23)cc1 (stereo not drawn) [Compound I-332]
IC50: 7.39 nM

CC(C)CN(CC(O)C(Cc1ccc(CCc2sc3c(c2C(=O)O)CC(C)(C)CC3)cc1)NC(=O)OC1COC2(C)OCCC12)S(=O)(=O)c1ccc2ncsc2c1 (stereo not drawn) [Compound I-107]
IC50: 2.37 nM

CC(C)CN(CC(O)C(Cc1ccc(OCc2ccc3ccccc3c2C(=O)N(C)C)cc1)NC(=O)OC1COC2(C)OCCC12)S(=O)(=O)c1ccc2ncsc2c1 (stereo not drawn) [Compound I-163]
IC50: 1.1 nM

COc1ccc(S(=O)(=O)N(CC(C)C)CC(O)C(Cc2ccc(NCc3cnc(-c4sc5c(c4C(=O)O)CC(C)(C)CC5)c(C)c3)cc2)NC(=O)OC2COC3(C)OCCC23)cc1 (stereo not drawn) [Compound I-559]
IC50: 1.87 nM

COc1ccc(S(=O)(=O)N(CC(C)C)CC(O)C(Cc2ccc(OCc3ccccc3-c3ccc4c(C(=O)O)csc4c3)cc2)NC(=O)OC2COC3(C)OCCC23)cc1 (stereo not drawn) [Compound I-179]
IC50: 1.1 nM

COc1ccc(S(=O)(=O)N(CC(C)C)CC(O)C(Cc2ccc(NCc3cncc(-c4sc5c(c4C(=O)O)CC(C)(C)CC5)c3)cc2)NC(=O)OC2COC3(C)OCCC23)cc1 (stereo not drawn) [Compound I-557]
IC50: 1.67 nM

COc1ccc(S(=O)(=O)N(CC(C)C)CC(O)C(Cc2ccc(OCCNC(=O)c3cccc(Cl)c3O)cc2)NC(=O)OC2COC3(C)OCCC23)cc1 (stereo not drawn) [Compound I-169]
IC50: 0.88 nM

COc1ccc(S(=O)(=O)N(CC(C)C)CC(O)C(Cc2ccc(N(CCC(C)(C)C)Cc3ccccc3-c3sc4c(c3C(=O)O)CC(C)(C)CC4)cc2)NC(=O)OC2COC3(C)OCCC23)cc1 (stereo not drawn) [Compound I-459]
IC50: 18.4 nM

CCCCN(Cc1ccccc1-c1sc2c(c1C(=O)O)CC(C)(C)CC2)c1ccc(CC(NC(=O)OC2COC3(C)OCCC23)C(O)CN(CC(C)C)S(=O)(=O)c2ccc(OC)cc2)cc1 (stereo not drawn) [Compound I-457]
IC50: 5.63 nM

COc1ccc(S(=O)(=O)N(CC(C)C)CC(O)C(Cc2ccc(N(C)Cc3ccccc3-c3c(C(=O)O)c4ccccc4n3C)cc2)NC(=O)OC2COC3(C)OCCC23)cc1 (stereo not drawn) [Compound I-412]
IC50: 1.51 nM

COc1ccc(S(=O)(=O)N(CC(C)C)CC(O)C(Cc2ccc(NC3CCCc4c(-c5sc6c(c5C(=O)O)CC(C)(C)CC6)cccc43)cc2)NC(=O)OC2COC3(C)OCCC23)cc1 (stereo not drawn) [Compound I-711]
IC50: 8.1 nM

COc1ccc(S(=O)(=O)N(CC(C)C)CC(O)C(Cc2ccc(OC3CN(c4cccc(-c5sc6c(c5C(=O)O)CC(C)(C)CC6)c4)C3)cc2)NC(=O)OC2COC3(C)OCCC23)cc1 (stereo not drawn) [Compound I-360]
IC50: 4.54 nM

COc1ccc(S(=O)(=O)N(CC(C)C)CC(O)C(Cc2ccc(OCc3ccccc3-c3sc(N4CCCC(C)(C)C4)nc3C(=O)O)cc2)NC(=O)OC2COC3OCCC23)cc1 (stereo not drawn) [Compound I-846]
IC50: 1.2 nM

COc1ccc(S(=O)(=O)N(CC(C)C)CC(O)C(Cc2ccc(NCc3cc4c(cc3-c3sc5c(c3C(=O)O)CC(C)(C)CC5)OCC(=O)N4C)cc2)NC(=O)OC2COC3(C)OCCC23)cc1 (stereo not drawn) [Compound I-759]
IC50: 2.55 nM

COc1ccc(S(=O)(=O)N(CC(C)C)CC(O)C(Cc2ccc(N3CCC(c4ccccc4-c4sc5c(c4C(=O)O)CC(C)(C)CC5)C3)cc2)NC(=O)OC2COC3(C)OCCC23)cc1 (stereo not drawn) [Compound I-523]
IC50: 9.44 nM

COc1ccc(S(=O)(=O)N(CC(C)C)CC(O)C(Cc2ccc(OCC3CCCN3Cc3sc4c(c3C(=O)O)CC(C)(C)CC4)cc2)NC(=O)OC2COC3(C)OCCC23)cc1 (stereo not drawn) [Compound I-194]
IC50: 1.63 nM

COc1ccc(S(=O)(=O)N(CC(C)C)CC(O)C(Cc2ccc(OC3CCCN(c4ccc(C#N)cc4-c4sc5c(c4C(=O)O)CC(C)(C)CC5)C3)cc2)NC(=O)OC2COC3(C)OCCC23)cc1 (stereo not drawn) [Compound I-331]
IC50: 12.3 nM

COc1ccc(S(=O)(=O)N(CC(C)C)C[C@@H](O)[C@H](Cc2ccc(OCc3ccc(-c4ccc(F)cc4F)cc3C(=O)NC(N)=O)cc2)NC(=O)O[C@H]2CO[C@@]3(C)OCC[C@@H]23)cc1 [Compound I-24]
IC50: 1.39 nM

CC(C)CN(CC(O)C(Cc1ccc(OCc2nc(Oc3ccccc3)sc2C(=O)O)cc1)NC(=O)OC1COC2OCCC12)S(=O)(=O)c1ccc2ncsc2c1 (stereo not drawn) [Compound I-842]
IC50: 0.69 nM

COc1ccc(S(=O)(=O)N(CC(C)C)CC(O)C(Cc2ccc(N(C)Cc3cc(Cl)ccc3C(=O)Nc3sc4c(c3C(=O)O)CC(C)(C)CC4)cc2)NC(=O)OC2COC3(C)OCCC23)cc1 (stereo not drawn) [Compound I-658]
IC50: 13.7 nM

COc1ccc(S(=O)(=O)N(CC(C)C)CC(O)C(Cc2ccc(NCc3ccccc3-c3c(C(=O)O)[nH]c4ccc(Cl)cc34)cc2)NC(=O)OC2COC3(C)OCCC23)cc1 (stereo not drawn) [Compound I-661]
IC50: 2.35 nM

COc1ccc(S(=O)(=O)N(CC(C)C)CC(O)C(Cc2ccc(N(C)Cc3ccccc3C(=O)N(C)c3sc4c(c3C(=O)O)CC(C)(C)CC4)cc2)NC(=O)OC2COC3(C)OCCC23)cc1 (stereo not drawn) [Compound I-590]
IC50: 2.82 nM

COc1ccc(S(=O)(=O)N(CC(C)C)CC(O)C(Cc2ccc(NCc3c(C)c(C)c(-c4sc5c(c4C(=O)O)CC(C)(C)CC5)c(C)c3C)cc2)NC(=O)OC2COC3(C)OCCC23)cc1 (stereo not drawn) [Compound I-535]
IC50: 43.1 nM

CC(C)CN(CC(O)C(Cc1ccc(CCc2sc3c(c2C(=O)O)CC(C)(C)CC3)cc1)NC(=O)OC1COC2OCCC12)S(=O)(=O)c1ccc2ncsc2c1 (stereo not drawn) [Compound I-831]
IC50: 1.49 nM

COc1ccc(S(=O)(=O)N(CC(C)C)CC(O)C(Cc2ccc(OCC3CCCN(c4ccc(C#N)cc4-c4sc5c(c4C(=O)O)CC(C)(C)CC5)C3)cc2)NC(=O)OC2COC3(C)OCCC23)cc1 (stereo not drawn) [Compound I-327]
IC50: 10.4 nM

COc1ccc(S(=O)(=O)N(CC(C)C)CC(O)C(Cc2ccc(OCCNC(=O)c3cc(Cl)ccc3O)cc2)NC(=O)OC2COC3(C)OCCC23)cc1 (stereo not drawn) [Compound I-170]
IC50: 0.91 nM

COc1ccc(S(=O)(=O)N(CC(C)C)CC(O)C(Cc2ccc(N(C)Cc3ccc(N4CCCCC4=O)cc3-c3sc4c(c3C(=O)O)CC(C)(C)CC4)cc2)NC(=O)OC2COC3(C)OCCC23)cc1 (stereo not drawn) [Compound I-743]
IC50: 2.32 nM

COc1ccc(S(=O)(=O)N(CC(C)C)CC(O)C(Cc2ccc(N(C)Cc3cccc(F)c3-c3sc4c(c3C(=O)O)CC(C)(C)CC4)cc2)NC(=O)OC2COC3(C)OCCC23)cc1 (stereo not drawn) [Compound I-493]
IC50: 2.43 nM

COc1ccc(S(=O)(=O)N(CC(C)C)CC(O)C(Cc2ccc(N(Cc3cccnc3)Cc3ccccc3-c3sc4c(c3C(=O)O)CC(C)(C)CC4)cc2)NC(=O)OC2COC3(C)OCCC23)cc1 (stereo not drawn) [Compound I-423]
IC50: 2.8 nM

COc1ccc(S(=O)(=O)N(CC(C)C)CC(O)C(Cc2ccc(NCc3ccccc3-c3ccsc3C(=O)O)cc2)NC(=O)OC2COC3(C)OCCC23)cc1 (stereo not drawn) [Compound I-498]
IC50: 1.83 nM

COc1ccc(S(=O)(=O)N(CC(C)C)CC(O)C(Cc2ccc(NC3CCCc4c(-c5sc6c(c5C(=O)O)CC(C)(C)CC6)cccc43)cc2)NC(=O)OC2COC3(C)OCCC23)cc1 (stereo not drawn) [Compound I-751]
IC50: 15.7 nM

COc1ccc(S(=O)(=O)N(CC(C)C)CC(O)C(Cc2ccc(NCc3cccc(-c4sc5c(c4C(=O)O)CC(C)(C)CC5)n3)cc2)NC(=O)OC2COC3(C)OCCC23)cc1 (stereo not drawn) [Compound I-283]
IC50: 2.28 nM

COc1ccc(S(=O)(=O)N(CC(C)C)CC(O)C(Cc2ccc(NCc3cc(C(F)(F)F)ccc3-c3sc4c(c3C(=O)O)CC(C)(C)CC4)cc2)NC(=O)OC2COC3OCCC23)cc1 (stereo not drawn) [Compound I-868]
IC50: 4.3 nM

Cc1cc(OCCNc2nc3ccc(S(=O)(=O)N(CC(C)C)CC(O)C(Cc4ccccc4)NC(=O)OC4COC5(C)OCCC45)cc3s2)ccc1-c1sc2c(c1C(=O)O)CC(C)(C)CC2 (stereo not drawn) [Compound I-797]
IC50: 0.85 nM

COc1ccc(S(=O)(=O)N(CC(C)C)CC(O)C(Cc2ccc(OCc3ncsc3-c3ccc(-c4sc5c(c4C(=O)O)CC(C)(C)CC5)cc3)cc2)NC(=O)OC2COC3(C)OCCC23)cc1 (stereo not drawn) [Compound I-111]
IC50: 1.48 nM

COc1ccc(S(=O)(=O)N(CC(C)C)CC(O)C(Cc2ccc(NCc3nc(N4CCOCC4)sc3-c3sc4c(c3C(=O)O)CC(C)(C)CC4)cc2)NC(=O)OC2COC3(C)OCCC23)cc1 (stereo not drawn) [Compound I-738]
IC50: 1.8 nM

COc1ccc(S(=O)(=O)N(CC(C)C)CC(O)C(Cc2ccc(NCC3(c4ccc(-c5sc6c(c5C(=O)O)CC(C)(C)CC6)cc4)CCCCC3)cc2)NC(=O)OC2COC3(C)OCCC23)cc1 (stereo not drawn) [Compound I-369]
IC50: 15.8 nM

CC(C)CN(CC(O)C(Cc1ccc(NCc2cc(C(F)(F)F)ccc2-c2sc3c(c2C(=O)O)CC(C)(C)CC3)cc1)NC(=O)OC1COC2OCCC12)S(=O)(=O)c1ccc2c(c1)OCO2 (stereo not drawn) [Compound I-874]
IC50: 5.12 nM

COc1ccc(S(=O)(=O)N(CC(C)C)CC(O)C(Cc2ccc(NCc3cccc(-c4sc5c(c4C(=O)O)CC(C)(C)CC5)c3)cc2)NC(=O)OC2COC3(C)OCCC23)cc1 (stereo not drawn) [Compound I-254]
IC50: 2.64 nM

COc1ccc(S(=O)(=O)N(CC(C)C)CC(O)C(Cc2ccc(N(C)Cc3ccc(N4CCCC4=O)cc3-c3sc4c(c3C(=O)O)CC(C)(C)CC4)cc2)NC(=O)OC2COC3(C)OCCC23)cc1 (stereo not drawn) [Compound I-744]
IC50: 2.14 nM

COc1ccc(S(=O)(=O)N(CC(C)C)CC(O)C(Cc2ccc(NCc3ncn4cc(-c5sc6c(c5C(=O)O)CC(C)(C)CC6)ccc34)cc2)NC(=O)OC2COC3(C)OCCC23)cc1 (stereo not drawn) [Compound I-323]
IC50: 2.41 nM
